# Patent US20250345332A1, “APROCITENTAN FOR THE TREATMENT OF HYPERTENSION” (IDORSIA PHARMACEUTICALS LTD, priority 2022, published 2025)
# “Also recorded” adds a separate entry of the source.
# Tested on: patients with resistant hypertension
# Assay: PRECISION phase 3 trial: urine albumin-creatinine ratio (UACR)
# Format: in vivo, human
# Method: A single, randomized study with three sequential treatment parts was designed. The study design addressed both the 4-week placebo-controlled efficacy of 12.5 and 25 mg aprocitentan (Part 1) and the durability of its effects in long-term active treatment with 25 mg aprocitentan for a further 32 weeks (Part 2) followed by a 12-week placebo-controlled withdrawal period with patients re-randomized to 25 mg or placebo (Part 3) (see for example Danaietash P et al; Identifying and treating resistant hypertension in PRECISION—a randomized long-term clinical trial with Aprocitentan. J Clin Hypertension 2022 (in press). Patients with uncontrolled BP (measured as unattended automated office BP) despite the use of three or more antihypertensive medications for at least 1 year were screened. They were switched to a single-tablet triple fixed combination antihypertensive therapy for at least 4 weeks before entering a single-blind placebo run-in period. The 4-week placebo run-in period further excluded placebo responders. The randomization period consisted of 3 sequential parts: • 1) a 4-week double-blind part with aprocitentan 12.5 mg, 25 mg, or placebo (1:1:1 ratio); • 2) a 32-week single-blind part with aprocitentan 25 mg; and • 3) a 12-week randomized withdrawal part with aprocitentan 25 mg or placebo (1:1 ratio).
# • Part 1: Double-blind, randomized parallel-group and placebo-controlled and lasts for 4 weeks. Subjects received (1:1:1 ratio), 25 or 12.5 mg aprocitentan, or placebo. • Part 2: Single-blind and single-arm, lasts for 32 weeks. All subjects received aprocitentan 25 mg. • Part 3: Double-blind withdrawal. All subjects completing part 2 and entering part 3 are re-randomized (1:1 ratio) to either aprocitentan 25 mg or placebo.
# In a population with difficult-to control hypertension (mean age of 62 years, obesity [69.3% of subjects], >50% with diabetes mellitus, 22% with CKD stage 3-4), evaluation of UACR is important. […] The geometric mean UACR at baseline was 26.6 mg/g in the overall population. At Week 4, placebo-corrected reductions in UACR of 30% and 34% with aprocitentan 12.5 mg and 25 mg were noted, respectively.
structure (smiles),measurement,setting,value
"NS(=O)(=O)Nc1ncnc(OCCOc2ncc(Br)cn2)c1-c1ccc(Br)cc1 [aprocitentan, {5-(4-bromo-phenyl)-6-[2-(5-bromo-pyrimidin-2-yloxy)-ethoxy]-pyrimidin-4-yl}-sulfamide]",reduction in UACR,"aprocitentan 12.5 mg, subjects with CKD stage 3-4",−26%
same,reduction in UACR,"aprocitentan 12.5 mg, subjects with baseline microalbuminuria",−43%
same,UACR reduction during part 2,"aprocitentan 25 mg, single-blind part 2",maintained; also recorded: sustained
same,reduction in UACR,"aprocitentan 25 mg, subjects with CKD stage 3-4",−45%
same,reduction in UACR,"aprocitentan 25 mg, subjects with baseline microalbuminuria",−45%
same,antiproteinuric effect (UACR change),patients with chronic kidney disease stage 3-4,−46%
same,antiproteinuric effect (UACR change),patients with eGFR of 60 mL/min per 1.73 m^2 or higher,−26%
same,antiproteinuric effect,"preliminary data, subjects with SGLT-2 inhibitor plus standardized antihypertensive background therapy, small sample size",improved antiproteinuric effect
